Source: patent US11407725B2 (The Board of Trustees of the University of Illinois, priority 2018, dated 2022)

Molecular target: T1, ALDH1A1 (Homo sapiens, UniProt P00352)
T1 construct: made in house
T1 sequence (P00352 1-501): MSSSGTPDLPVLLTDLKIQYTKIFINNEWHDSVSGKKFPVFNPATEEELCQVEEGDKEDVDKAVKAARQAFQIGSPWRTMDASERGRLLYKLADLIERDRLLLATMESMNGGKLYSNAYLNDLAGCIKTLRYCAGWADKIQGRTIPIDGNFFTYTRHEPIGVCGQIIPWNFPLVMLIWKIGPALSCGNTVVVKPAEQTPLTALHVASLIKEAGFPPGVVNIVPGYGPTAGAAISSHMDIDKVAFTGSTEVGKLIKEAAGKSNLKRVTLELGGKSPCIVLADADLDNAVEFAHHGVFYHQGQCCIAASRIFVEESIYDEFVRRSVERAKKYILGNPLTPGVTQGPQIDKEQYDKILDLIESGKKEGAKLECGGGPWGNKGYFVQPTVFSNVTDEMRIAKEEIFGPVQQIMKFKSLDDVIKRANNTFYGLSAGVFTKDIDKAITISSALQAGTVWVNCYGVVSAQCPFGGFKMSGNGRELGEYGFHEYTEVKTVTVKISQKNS
Assay: ALDH isoform selectivity of red probes: ALDH1A1
Type: biochemical
Description: Each ALDH isoform was added to a 50 mM triethanolamine solution (pH 7.4) containing 2.0 mM NAD^+ and 100 μM substrate at room temperature. Benzaldehyde was the substrate for ALDH3A1. Propanal was the substrate for all other isoforms. ALDH isoform activity was determined by monitoring the rate of NADH production through the increase in absorbance at 340 nm (ε=6220 M^−1cm^−1). For these assays, 1 unit is defined as the amount of enzyme that catalyzes the conversion of […] per minute. For every combination of dye and enzyme, 2 μM dye was preincubated with 2.0 mM NAD^+ in 50 mM triethanolamine solution (pH 7.4). The reaction was initiated by addition of 1 unit of ALDH. Dyes were excited at 590 nm, and fluorescence was measured continuously at 610 nm.

Cc1cc(C=O)c(F)c(F)c1C1=C2C=CC(=O)C=C2[Si](C)(C)c2cc(O)ccc21
turn-on response when treated with ALDH1A1: 3.2 fold
Enzyme Activity 1A1 (Table 2): High
Enzymatic Turn On (Table 2, ALDH1A1, 2 μM dye): 3.2
